The target in data set [1] is T1, H1 (h) (Homo sapiens, UniProt P35367).
T1 construct: purchased Eurofins Cerep (SafetyScreen44), recognised from the panel format
Nature of the data set: In vitro CEREP profiling, H1 (h) (antagonist radioligand). The data set is classed as binding. The following applies: test compound concentration 10 uM; for inhibition at 10 µM: read-out: perc_inhibition (% inhibition of the binding of a ligand specific for each target). The text has this: (§1) Supplement media-1.zip/Safety_Panel_Profile.csv, table | column: perc_inhibition

Data set [2] has as its target T2, ETA (h) (Homo sapiens, UniProt P25101).
T2 construct: purchased Eurofins Cerep (SafetyScreen44), recognised from the panel format
T2 sequence (P25101 21-427): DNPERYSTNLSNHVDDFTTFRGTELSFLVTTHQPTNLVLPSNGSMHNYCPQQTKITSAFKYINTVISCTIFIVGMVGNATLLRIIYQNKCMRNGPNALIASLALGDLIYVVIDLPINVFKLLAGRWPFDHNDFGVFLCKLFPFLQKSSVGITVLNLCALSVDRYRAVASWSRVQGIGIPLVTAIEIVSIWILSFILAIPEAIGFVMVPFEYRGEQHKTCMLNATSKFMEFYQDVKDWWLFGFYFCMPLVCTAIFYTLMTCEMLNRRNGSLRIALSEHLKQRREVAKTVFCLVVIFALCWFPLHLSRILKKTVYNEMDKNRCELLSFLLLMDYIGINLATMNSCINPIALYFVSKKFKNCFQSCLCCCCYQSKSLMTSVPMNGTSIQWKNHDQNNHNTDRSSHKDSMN
Description: In vitro CEREP profiling, ETA (h) (agonist radioligand). The following applies: test compound 10 uM; for inhibition at 10 µM: read-out: perc_inhibition (% inhibition of the binding of a ligand specific for each target). It counts as binding.
From the text: as §1

Data set [3] addresses T3, CB2 (h) (Homo sapiens, UniProt P34972).
T3 construct: purchased Eurofins Cerep (SafetyScreen44), recognised from the panel format
Nature of the data set: In vitro CEREP profiling, CB2 (h) (agonist radioligand). The following applies: test compound 10 uM; for inhibition at 10 µM: read-out: perc_inhibition (% inhibition of the binding of a ligand specific for each target). The data set is classed as binding.
From the text: as §1

Data set [4] can be described thus: In vitro rat hepatocyte stability. The data set is classed as in vitro ADME. An excerpt:
Supplement media-1.zip/Hepatocyte_Stability.csv, table | column: clint; t_half

In data set [5] the test system is Vero E6/TMPRSS2. Description: Vero E6/TMPRSS2 cytotoxicity with P-gp inhibitor. It counts as cell-based. The following applies: for perc_max_measured: highest measured response of the dose series; for perc_min_measured: lowest measured response of the dose series. An excerpt:
Supplement media-1.zip/Cytotoxicity.csv, table | column: cc10; cc50; perc_min_measured; perc_max_measured

In data set [6] the target is T4, MAPKAP-K2(h) (Homo sapiens, UniProt P49137).
T4 construct: gene MAPKAPK2
Nature of the data set: biochemical. Further details: In vitro kinase panel profiling, per cent remaining kinase activity at 10 uM. The following applies: atp_concentration=90, read-out: % of control remaining. An excerpt:
(§2) We derisk potential for off-target activity by profiling the compound in a CEREP panel, a standard secondary pharmacology assessment, as well as a kinase panel to derisk a potential hinge-binding motif in our leads, and a PARP panel to derisk activity against human […]. Reassuringly, the compounds are selective, with the only off-targets being moderate human CHRM2 and KOR receptors activity associated with ASAP-0011198.

Data set [7] has as its target T5, ASK1(h) (Homo sapiens, UniProt Q99683).
T5 construct: gene MAP3K5
T5 sequence (Q99683 1-1374): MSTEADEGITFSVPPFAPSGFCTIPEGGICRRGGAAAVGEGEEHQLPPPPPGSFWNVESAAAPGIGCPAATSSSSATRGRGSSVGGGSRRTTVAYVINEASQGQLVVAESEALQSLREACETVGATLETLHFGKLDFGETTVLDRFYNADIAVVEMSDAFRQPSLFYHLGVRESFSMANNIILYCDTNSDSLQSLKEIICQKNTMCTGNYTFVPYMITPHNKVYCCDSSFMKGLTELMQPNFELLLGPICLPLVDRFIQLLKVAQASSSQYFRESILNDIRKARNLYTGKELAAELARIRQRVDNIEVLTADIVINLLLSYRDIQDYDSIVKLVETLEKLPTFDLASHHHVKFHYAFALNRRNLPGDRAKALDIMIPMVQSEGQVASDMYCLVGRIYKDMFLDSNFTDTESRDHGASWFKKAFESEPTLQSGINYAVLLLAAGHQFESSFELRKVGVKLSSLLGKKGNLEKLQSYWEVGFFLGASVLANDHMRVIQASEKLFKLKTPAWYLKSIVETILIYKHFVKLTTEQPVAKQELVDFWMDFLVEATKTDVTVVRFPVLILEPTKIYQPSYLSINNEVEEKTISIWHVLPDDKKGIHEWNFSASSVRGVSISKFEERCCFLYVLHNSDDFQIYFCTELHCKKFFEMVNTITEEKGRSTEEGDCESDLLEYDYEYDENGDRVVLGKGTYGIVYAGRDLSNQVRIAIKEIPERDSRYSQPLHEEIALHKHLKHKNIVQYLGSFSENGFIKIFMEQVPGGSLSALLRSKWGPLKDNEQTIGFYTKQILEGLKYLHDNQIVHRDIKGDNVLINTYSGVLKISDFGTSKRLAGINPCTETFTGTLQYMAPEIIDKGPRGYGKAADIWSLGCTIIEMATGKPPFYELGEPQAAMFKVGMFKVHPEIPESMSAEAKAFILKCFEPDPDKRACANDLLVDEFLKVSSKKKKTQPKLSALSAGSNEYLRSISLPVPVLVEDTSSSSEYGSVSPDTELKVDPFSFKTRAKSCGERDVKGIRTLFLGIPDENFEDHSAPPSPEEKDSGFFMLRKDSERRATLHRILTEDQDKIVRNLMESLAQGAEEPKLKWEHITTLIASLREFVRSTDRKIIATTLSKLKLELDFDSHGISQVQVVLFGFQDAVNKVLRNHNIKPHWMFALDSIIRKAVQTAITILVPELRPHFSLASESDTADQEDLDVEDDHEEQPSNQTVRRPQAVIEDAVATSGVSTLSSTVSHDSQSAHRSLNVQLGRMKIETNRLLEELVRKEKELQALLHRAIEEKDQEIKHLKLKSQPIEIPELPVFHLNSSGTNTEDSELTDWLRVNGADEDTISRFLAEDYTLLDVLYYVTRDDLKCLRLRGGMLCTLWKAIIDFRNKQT
Nature of the data set: biochemical. The following applies: atp_concentration=200, read-out: % of control remaining. Further details: In vitro kinase panel profiling, per cent remaining kinase activity at 10 uM.
From the text: as §2

Data set [8] deals with CDK6/cyclinD3(h) (Homo sapiens, UniProt Q00534). Description: biochemical. Further details: In vitro kinase panel profiling, per cent remaining kinase activity at 10 uM. The following applies: atp_concentration=200, read-out: % of control remaining.
From the text: as §2

Structures are written as SMILES. Several values for one entry are separate records, joined by “and”; a condition that tells them apart may be missing. Equal values may be shown once. Read-outs that look alike come from different tables or passages of the source. Bounds are passed on as bounds.

T3 sequence (P34972 whole entry): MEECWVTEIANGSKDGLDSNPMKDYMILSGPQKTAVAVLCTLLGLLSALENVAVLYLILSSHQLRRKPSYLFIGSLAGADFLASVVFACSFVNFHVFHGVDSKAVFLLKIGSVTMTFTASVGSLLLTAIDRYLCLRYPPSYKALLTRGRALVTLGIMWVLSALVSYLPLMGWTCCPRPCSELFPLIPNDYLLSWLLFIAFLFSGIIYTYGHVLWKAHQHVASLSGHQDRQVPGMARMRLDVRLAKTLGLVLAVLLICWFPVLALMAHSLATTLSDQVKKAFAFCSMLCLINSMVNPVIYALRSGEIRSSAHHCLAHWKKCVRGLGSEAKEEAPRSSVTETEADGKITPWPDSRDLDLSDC
T4 sequence (P49137 whole entry): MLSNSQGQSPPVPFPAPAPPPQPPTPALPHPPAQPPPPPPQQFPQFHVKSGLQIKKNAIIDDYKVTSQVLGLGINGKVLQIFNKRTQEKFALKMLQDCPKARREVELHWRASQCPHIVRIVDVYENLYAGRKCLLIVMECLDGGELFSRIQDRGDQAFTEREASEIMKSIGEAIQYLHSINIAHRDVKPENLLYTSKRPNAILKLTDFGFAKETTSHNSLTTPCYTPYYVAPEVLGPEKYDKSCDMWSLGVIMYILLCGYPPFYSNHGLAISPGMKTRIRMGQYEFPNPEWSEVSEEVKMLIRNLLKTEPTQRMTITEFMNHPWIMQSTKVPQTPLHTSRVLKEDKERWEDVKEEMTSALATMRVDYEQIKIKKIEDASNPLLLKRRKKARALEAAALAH
T1 sequence (P35367 whole entry): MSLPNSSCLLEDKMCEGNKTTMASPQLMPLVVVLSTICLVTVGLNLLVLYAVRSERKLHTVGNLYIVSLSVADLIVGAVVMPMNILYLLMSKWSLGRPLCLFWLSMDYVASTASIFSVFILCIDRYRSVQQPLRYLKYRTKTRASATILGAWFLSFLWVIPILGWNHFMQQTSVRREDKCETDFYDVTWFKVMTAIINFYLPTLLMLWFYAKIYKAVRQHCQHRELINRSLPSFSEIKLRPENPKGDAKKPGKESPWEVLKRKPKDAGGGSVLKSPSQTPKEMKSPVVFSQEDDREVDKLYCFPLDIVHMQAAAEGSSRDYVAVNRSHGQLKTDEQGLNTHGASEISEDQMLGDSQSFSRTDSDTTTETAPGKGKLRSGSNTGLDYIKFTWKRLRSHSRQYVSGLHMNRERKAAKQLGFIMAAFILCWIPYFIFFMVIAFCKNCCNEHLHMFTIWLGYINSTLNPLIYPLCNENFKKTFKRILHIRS
Chain of CDK6/cyclinD3(h) (Q00534 whole entry): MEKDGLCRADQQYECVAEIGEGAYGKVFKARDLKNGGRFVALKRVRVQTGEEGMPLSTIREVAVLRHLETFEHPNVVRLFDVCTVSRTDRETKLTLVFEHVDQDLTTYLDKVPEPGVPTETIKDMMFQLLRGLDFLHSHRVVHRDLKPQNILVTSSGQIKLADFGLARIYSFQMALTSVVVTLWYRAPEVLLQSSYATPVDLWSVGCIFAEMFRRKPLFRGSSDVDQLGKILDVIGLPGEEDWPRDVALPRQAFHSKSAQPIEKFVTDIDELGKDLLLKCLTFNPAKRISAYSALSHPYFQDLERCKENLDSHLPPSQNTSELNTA
Chain of CDK6/cyclinD3(h) (P30281 whole entry partner): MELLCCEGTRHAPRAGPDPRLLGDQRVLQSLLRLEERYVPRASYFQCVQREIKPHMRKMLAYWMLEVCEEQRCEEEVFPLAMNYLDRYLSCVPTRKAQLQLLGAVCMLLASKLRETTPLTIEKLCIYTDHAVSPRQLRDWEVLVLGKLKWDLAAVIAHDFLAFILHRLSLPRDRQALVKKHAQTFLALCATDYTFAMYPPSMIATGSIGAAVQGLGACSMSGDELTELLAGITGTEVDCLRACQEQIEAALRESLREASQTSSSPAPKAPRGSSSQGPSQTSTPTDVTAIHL

Regarding `CC(C)[C@@H](Nc1ncnc2[nH]c(-c3cnn(C)c3C#N)cc12)c1ccc2c(n1)OCCO2` [ASAP-0010716], the “perc_inhibition (% inhibition of the binding of a ligand specific for each target)” value in data set [1] is 0%. The “perc_inhibition (% inhibition of the binding of a ligand specific for each target)” value in data set [2] is given as 5%. Besides, in data set [3], the “perc_inhibition (% inhibition of the binding of a ligand specific for each target)” value is recorded as 16%. In data set [4], this compound returned a clint of 182.0 uL/min/1E6 cells and a t_half of 3.8 min. For the same compound, in data set [5], the CC50 (as a rule, the concentration at which the toxic effect on the cells reaches its halfway point) is > 5 µM; the cc10 was > 5.0 µM; the perc_max_measured is 116.627%; the perc_min_measured is reported as 99.207%. In addition, the remaining activity at 10 µM in data set [6] (batch_name=ASAP-0010716-002) worked out at 114%. The remaining activity at 10 µM in data set [7] (batch_name=ASAP-0010716-002) came out at 108%.
Regarding `Cn1ncc(-c2cc3c(N[C@@H](c4ccc5c(n4)OCCO5)C(C)(C)C)ncnc3[nH]2)c1C#N` [ASAP-0011221], the “perc_inhibition (% inhibition of the binding of a ligand specific for each target)” value in data set [1] is listed as 7%; in data set [2] it was 9%; in data set [3], 31%. Besides, in data set [4], the clint is 185.0 uL/min/1E6 cells. In addition, in data set [4], the t_half was determined as 3.76 min. In addition, the remaining activity at 10 µM in data set [6] (batch_name=ASAP-0011221-002) stood at 110%; in data set [7] (batch_name=ASAP-0011221-002), 108%.
For the compound `CC(C)C(Nc1ncnc2[nH]c(C(=O)NC3CCN(C)C3)cc12)c1ccc2c(c1)S(=O)(=O)CCC2` (stereo not drawn) [ASAP-0011198], the figures for the inhibition at 10 µM in data set [1], in data set [2] and in data set [3] were 2%, -6% and -8%, respectively. Besides, in data set [4], the clint stood at 9.3 uL/min/1E6 cells. Also, in data set [4], the t_half is 145.0 min and 74.8 min. The intrinsic clearance (hepatocyte CLint) (in general, a measure of how fast metabolising enzymes remove a compound, apart from limits set by blood flow) in data set [4] (rat, hepatocytes) is 4.78 µL/min/1e6 cells. The cc10 in data set [5] is > 5.0 µM. In addition, the perc_max_measured in data set [5] came out at 120.684%. The perc_min_measured in data set [5] came out at 90.027%. For the same compound, the remaining activity at 10 µM in data set [6] (batch_name=ASAP-0011198-002) is 108%; in data set [7] (batch_name=ASAP-0011198-002) it was 105%; in data set [8] (batch_name=ASAP-0011198-002), 99%.
Take `CC(C)[C@H](Nc1ncnc2[nH]ccc12)c1ccc2c(c1)S(=O)(=O)CCC2` [ASAP-0008674]: in data set [1], the “perc_inhibition (% inhibition of the binding of a ligand specific for each target)” value is on record as -3%. The “perc_inhibition (% inhibition of the binding of a ligand specific for each target)” value in data set [2] was -1%. In data set [3], the “perc_inhibition (% inhibition of the binding of a ligand specific for each target)” value is -13%. Further, in data set [4], the clint stood at 75.8 uL/min/1E6 cells and the t_half was determined as 9.15 min. In data set [5], the CC50 was > 5 µM; the cc10 was > 5.0 µM; the perc_max_measured is 135.379% and 119.601%; the perc_min_measured was 95.549% and 105.983%. Further, the remaining activity at 10 µM in data set [6] (batch_name=ASAP-0008674-002) was 106%. In addition, the remaining activity at 10 µM in data set [7] (batch_name=ASAP-0008674-002) turned out to be 105%. Further, the remaining activity at 10 µM in data set [8] (batch_name=ASAP-0008674-002) turned out to be 105%.
Consider `CC(C)[C@@H](Nc1ncnc2[nH]c(-c3cnn(C)c3C#N)cc12)c1ccc2c(n1)OCCO2` [ASAP-0008418], for which the remaining activity at 10 µM in data set [8] (batch_name=ASAP-0008418-001) came to 105%.
Take `COc1ccc([C@@H](Cc2nnn[nH]2)NC(=O)c2ncnc3[nH]ccc23)cc1` [ASAP-0008340]: the remaining activity at 10 µM was determined as 92% in data set [6] (batch_name=ASAP-0008340-001), 101% in data set [7] (batch_name=ASAP-0008340-001) and 100% in data set [8] (batch_name=ASAP-0008340-001).
Take `Cc1nn(C)cc1-c1cc2c(NC(c3ccc4c(c3)S(=O)(=O)CCC4)C(C)C)ncnc2[nH]1` (stereo not drawn) [ASAP-0011446]: the inhibition (commonly the change of the read-out against control, counted positive when it falls) at 10 µM in data set [1] is 0%; in data set [2], -4%; in data set [3] it was -8%. Besides, the cc10 in data set [5] was > 5.0 µM. In data set [5], this compound gave a perc_max_measured of 106.351%. Further, the perc_min_measured in data set [5] amounted to 79.435%. Also, the remaining activity at 10 µM in data set [6] (batch_name=ASAP-0011446-002) came to 110%; in data set [7] (batch_name=ASAP-0011446-002), 103%; in data set [8] (batch_name=ASAP-0011446-002) it was 106%.
For `CNCc1cc(-c2cc3c(N[C@@H](c4ccc5c(c4)S(=O)(=O)CCC5)C(C)C)ncnc3[nH]2)co1` [ASAP-0011176], the “perc_inhibition (% inhibition of the binding of a ligand specific for each target)” value in data set [1] is recorded as -3%. In addition, in data set [2], the “perc_inhibition (% inhibition of the binding of a ligand specific for each target)” value was -1%. The “perc_inhibition (% inhibition of the binding of a ligand specific for each target)” value in data set [3] is reported as -8%. For the same compound, in data set [4], the clint is given as 15.6 uL/min/1E6 cells and the t_half amounted to 44.5 min. Moreover, in data set [5], the CC50 is > 5 µM, the cc10 is > 5.0 µM, the perc_max_measured is reported as 117.999% and the perc_min_measured is 102.841%. Also, the remaining activity at 10 µM in data set [6] (batch_name=ASAP-0011176-002) came to 106%. Also, the remaining activity at 10 µM in data set [8] (batch_name=ASAP-0011176-002) was 92%.
Take `CC(C)C(Nc1ncnc2[nH]ccc12)c1ccc2c(c1)S(=O)(=O)CCC2` (stereo not drawn) [ASAP-0008327]: the remaining activity at 10 µM in data set [6] (batch_name=ASAP-0008327-001) came out at 105%; in data set [7] (batch_name=ASAP-0008327-001), 108%; in data set [8] (batch_name=ASAP-0008327-001), 99%.

The record behind these values is publication doi:10.1101/2024.08.19.608619, “Discovery of potent SARS-CoV-2 nsp3 macrodomain inhibitors uncovers lack of translation to cellular antiviral response” (bioRxiv, 2024).
